Test results published in ChEMBL document CHEMBL1201862, “PubChem BioAssay data set” (2004).
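96-well plates; 48 h exposure; 5 concentrations. Endpoints by linear interpolation between flanking doses. Not reached: highest tested concentration assigned. GI50 is the concentration that inhibits growth by half.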 Activity calls are given as the source filed them. Cut-off read from the data, not from the text of the source: active = GI50 up to about 1.1 µM and inactive = higher.

Key:
Experiment in all cases: growth of human tumour cells (NCI), 48 h
[1] = system: 786-0
[2] = system: A498
[3] = system: A549
[4] = system: ACHN
[5] = system: CAKI-1
[6] = system: CCRF-CEM
[7] = system: COLO 205
[8] = system: DLD-1
[9] = system: DMS-114
[10] = system: DMS-273
[11] = system: EKVX
[12] = system: HCC 2998
[13] = system: HCT-116
[14] = system: HCT-15
[15] = system: HL-60
[16] = system: HOP-18
[17] = system: HOP-62
[18] = system: HOP-92
[19] = system: HT-29
[20] = system: IGROV-1
[21] = system: K562
[22] = system: KM-20L2
[23] = system: KM12
[24] = system: LXFL 529
[25] = system: M14
[26] = system: M19-MEL
[27] = system: MOLT-4
[28] = system: Malme-3M
[29] = system: NCI-H226
[30] = system: NCI-H23
[31] = system: NCI-H460
[32] = system: NCI-H522
[33] = system: OVCAR-3
[34] = system: OVCAR-4
[35] = system: OVCAR-5
[36] = system: OVCAR-8
[37] = system: RPMI-8226
[38] = system: RXF 393
[39] = system: RXF 631
[40] = system: SF-268
[41] = system: SF-295
[42] = system: SF-539
[43] = system: SK-MEL-28
[44] = system: SK-MEL-2
[45] = system: SK-MEL-5
[46] = system: SK-OV-3
[47] = system: SN12C
[48] = system: SNB-19
[49] = system: SNB-75
[50] = system: SNB-78
[51] = system: SR
[52] = system: SW-620
[53] = system: TK-10
[54] = system: U-251
[55] = system: UACC-257
[56] = system: UACC-62
[57] = system: UO-31
[58] = system: XF498

## COc1ccc(Cc2nc3ccccc3s2)cc1OC
[1]
  GI50: 17.9 µM (inactive)
[2]
  GI50: 23.7 µM (inactive)
[3]
  GI50: 23.5 µM (inactive)
[4]
  GI50: 16.8 µM (inactive)
[5]
  GI50: 15.5 µM (inactive)
[6]
  GI50: 14.8 µM (inactive)
[7]
  GI50: 14.6 µM (inactive)
[8]
  GI50: 16.6 µM (inactive)
[9]
  GI50: 15.7 µM (inactive)
[10]
  GI50: 15.6 µM (inactive)
[11]
  GI50: 20.8 µM (inactive)
[12]
  GI50: 21.1 µM (inactive)
[13]
  GI50: 15.8 µM (inactive)
[14]
  GI50: 24.2 µM
[15]
  GI50: 18.4 µM (inactive)
[16]
  GI50: 23.9 µM (inactive)
[17]
  GI50: 29.6 µM (inactive)
[18]
  GI50: 17.7 µM (inactive)
[19]
  GI50: 18.7 µM (inactive)
[20]
  GI50: 18.9 µM (inactive)
[21]
  GI50: 20.3 µM (inactive)
[22]
  GI50: 19.3 µM (inactive)
[23]
  GI50: 17.4 µM (inactive)
[24]
  GI50: 17.5 µM (inactive)
[25]
  GI50: 17.5 µM (inactive)
[26]
  GI50: 15.6 µM (inactive)
[27]
  GI50: 20.2 µM (inactive)
[28]
  GI50: 17.1 µM (inactive)
[29]
  GI50: 21 µM (inactive)
[30]
  GI50: 18.1 µM (inactive)
[31]
  GI50: 19.7 µM (inactive)
[32]
  GI50: 17.8 µM (inactive)
[33]
  GI50: 17.3 µM (inactive)
[34]
  GI50: 16.4 µM (inactive)
[35]
  GI50: 22.3 µM (inactive)
[36]
  GI50: 16.9 µM (inactive)
[37]
  GI50: 23.7 µM (inactive)
[38]
  GI50: 19.6 µM (inactive)
[39]
  GI50: 17.7 µM (inactive)
[40]
  GI50: 15.8 µM (inactive)
[41]
  GI50: 15.1 µM (inactive)
[42]
  GI50: 17.3 µM (inactive)
[43]
  GI50: 18 µM (inactive)
[44]
  GI50: 20.3 µM (inactive)
[45]
  GI50: 16.1 µM (inactive)
[46]
  GI50: 28.2 µM (inactive)
[47]
  GI50: 17.1 µM (inactive)
[48]
  GI50: 32.5 µM (inactive)
[49]
  GI50: 18.8 µM (inactive)
[50]
  GI50: 19.8 µM (inactive)
[51]
  GI50: 18.9 µM (inactive)
[52]
  GI50: 18.5 µM (inactive)
[53]
  GI50: 36.2 µM (inactive)
[54]
  GI50: 14.6 µM (inactive)
[55]
  GI50: 18.1 µM (inactive)
[56]
  GI50: 17.3 µM (inactive)
[57]
  GI50: 16.4 µM (inactive)
[58]
  GI50: 15.3 µM (inactive)
